Source: ChEMBL document CHEMBL5543153, “Discovery of a Potent Dual Son of Sevenless 1 (SOS1) and Epidermal Growth Factor Receptor (EGFR) Inhibitor for the Treatment of Prostate Cancer” (J Med Chem, 2024)
Activity calls are given as the source filed them. The calls are words filed in the database; no cut-off is given here.

What was measured:
[1] = target: T1, Son of sevenless homolog 1 (Homo sapiens) (UniProt Q07889); experiment: Inhibition of human recombinant SOS1 at 10 uM relative to control
T1 sequence (whole entry): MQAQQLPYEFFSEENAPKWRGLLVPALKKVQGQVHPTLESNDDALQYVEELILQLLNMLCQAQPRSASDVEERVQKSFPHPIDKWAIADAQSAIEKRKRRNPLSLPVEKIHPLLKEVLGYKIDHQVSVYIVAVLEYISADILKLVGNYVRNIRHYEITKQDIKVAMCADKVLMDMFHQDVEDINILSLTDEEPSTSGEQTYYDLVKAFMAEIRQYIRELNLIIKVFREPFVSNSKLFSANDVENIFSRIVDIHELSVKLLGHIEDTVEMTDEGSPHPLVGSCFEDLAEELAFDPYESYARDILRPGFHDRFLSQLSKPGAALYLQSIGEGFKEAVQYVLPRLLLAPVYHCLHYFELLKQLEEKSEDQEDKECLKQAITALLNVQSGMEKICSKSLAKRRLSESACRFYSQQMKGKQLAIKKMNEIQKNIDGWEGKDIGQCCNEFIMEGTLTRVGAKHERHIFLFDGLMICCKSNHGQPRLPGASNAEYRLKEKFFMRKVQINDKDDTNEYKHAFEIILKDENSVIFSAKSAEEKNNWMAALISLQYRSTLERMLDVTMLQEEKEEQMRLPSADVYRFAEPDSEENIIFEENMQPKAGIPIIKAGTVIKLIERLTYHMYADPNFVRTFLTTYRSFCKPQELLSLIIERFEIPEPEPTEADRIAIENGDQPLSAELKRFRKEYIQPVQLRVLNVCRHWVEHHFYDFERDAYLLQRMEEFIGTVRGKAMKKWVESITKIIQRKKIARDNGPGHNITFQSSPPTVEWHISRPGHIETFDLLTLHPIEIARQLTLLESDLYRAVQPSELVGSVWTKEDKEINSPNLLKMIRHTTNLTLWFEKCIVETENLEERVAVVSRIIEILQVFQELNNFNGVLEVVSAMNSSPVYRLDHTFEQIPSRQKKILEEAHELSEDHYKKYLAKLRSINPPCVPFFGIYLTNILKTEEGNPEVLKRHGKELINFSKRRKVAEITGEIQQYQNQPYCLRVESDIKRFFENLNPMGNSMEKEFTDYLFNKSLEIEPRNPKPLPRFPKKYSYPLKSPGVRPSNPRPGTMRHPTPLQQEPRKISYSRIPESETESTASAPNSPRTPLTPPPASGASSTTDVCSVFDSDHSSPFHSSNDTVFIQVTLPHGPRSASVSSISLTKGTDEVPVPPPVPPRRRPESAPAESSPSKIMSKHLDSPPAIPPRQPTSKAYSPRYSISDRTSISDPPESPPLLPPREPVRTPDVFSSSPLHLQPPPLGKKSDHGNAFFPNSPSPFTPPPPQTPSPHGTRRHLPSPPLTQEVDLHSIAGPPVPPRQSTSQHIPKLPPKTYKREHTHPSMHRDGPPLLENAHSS

[2] = target: Epidermal growth factor receptor (Homo sapiens, UniProt P00533); experiment: Inhibition of EGFR (unknown origin) using ultra ULight GT peptide as substrate at 10 uM incubated for 2 hrs relative to control
[3] = tested on: PC-3; experiment: cells; format: functional, cell-based; settings: Homo sapiens, PC-3, 72 h
Description: Antiproliferative activity against human PC-3 cells assessed as inhibition of cell growth incubated for 72 hrs by MTT assay

[4] = tested on: PC-3; experiment: cells; settings: Homo sapiens, PC-3, 72 h
Description: Synergistic antiproliferative activity against human PC-3 cells assessed as inhibition of cell growth incubated for 72 hrs in presence of gefitinib by MTT assay

Sequence of Epidermal growth factor receptor (P00533 whole entry): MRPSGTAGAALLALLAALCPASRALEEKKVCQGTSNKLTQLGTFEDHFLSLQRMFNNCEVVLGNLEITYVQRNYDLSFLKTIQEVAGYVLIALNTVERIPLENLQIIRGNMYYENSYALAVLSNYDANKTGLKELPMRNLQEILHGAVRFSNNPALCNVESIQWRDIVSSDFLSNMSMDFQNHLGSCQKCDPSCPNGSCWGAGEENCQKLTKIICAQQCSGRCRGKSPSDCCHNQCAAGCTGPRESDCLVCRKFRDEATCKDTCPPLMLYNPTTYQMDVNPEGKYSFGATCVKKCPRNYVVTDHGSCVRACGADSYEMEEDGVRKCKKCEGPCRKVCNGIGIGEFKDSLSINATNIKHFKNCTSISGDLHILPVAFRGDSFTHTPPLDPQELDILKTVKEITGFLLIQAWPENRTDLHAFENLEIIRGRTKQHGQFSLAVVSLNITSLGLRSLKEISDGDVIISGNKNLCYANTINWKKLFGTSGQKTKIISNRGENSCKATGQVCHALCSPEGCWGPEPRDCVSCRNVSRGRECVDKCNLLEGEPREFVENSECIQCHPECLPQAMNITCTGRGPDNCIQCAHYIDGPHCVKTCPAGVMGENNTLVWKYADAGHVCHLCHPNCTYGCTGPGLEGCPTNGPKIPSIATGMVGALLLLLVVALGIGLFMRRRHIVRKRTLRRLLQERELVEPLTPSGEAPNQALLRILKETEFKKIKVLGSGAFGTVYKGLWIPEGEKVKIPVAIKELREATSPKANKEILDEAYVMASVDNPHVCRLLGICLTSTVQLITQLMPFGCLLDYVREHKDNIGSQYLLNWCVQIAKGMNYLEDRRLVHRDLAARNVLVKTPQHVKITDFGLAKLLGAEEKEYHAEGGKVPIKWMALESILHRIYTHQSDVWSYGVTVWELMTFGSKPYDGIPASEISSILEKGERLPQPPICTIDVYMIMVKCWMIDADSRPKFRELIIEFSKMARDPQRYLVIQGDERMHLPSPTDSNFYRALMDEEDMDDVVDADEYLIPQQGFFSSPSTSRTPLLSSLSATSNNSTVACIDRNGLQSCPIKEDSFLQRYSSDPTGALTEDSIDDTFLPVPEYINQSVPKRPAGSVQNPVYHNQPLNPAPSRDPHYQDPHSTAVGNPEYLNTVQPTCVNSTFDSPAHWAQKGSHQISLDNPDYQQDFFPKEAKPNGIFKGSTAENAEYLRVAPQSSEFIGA

Row | SMILES | inhibition [1] | inhibition [2] | IC50 [3] | IC50 [4]
1 | c1ccc(Nc2ncnc3sc4c(c23)CCC4)cc1 | inactive | 70% | – | –
2 | Cc1sc2ncnc(Nc3ccc(F)cc3)c2c1C | inactive | 62% | – | –
3 | COc1cc2nc(C)nc(N[C@H](C)c3cc(N)cc(C(F)(F)F)c3)c2cc1O[C@H]1CCOC1 | – | – | 8.75 µM | 1.37 µM
4 | c1ccc2c(Nc3ccc4c(c3)OCO4)ncnc2c1 | inactive | 91% | – | –
5 | CCc1cc2c(Nc3ccc(OC)cc3)ncnc2s1 | inactive | 64% | – | –
6 | Clc1ccc(CNc2ncnc3ccccc23)cc1 | 47% | 84% | – | –
7 | CCc1cc2c(Nc3ccc(Cl)cc3)ncnc2s1 | inactive | 66% | – | –
8 | COc1cc2ncnc(NCc3ccc4c(c3)OCO4)c2cc1OC | 41% | 92% | – | –
9 | Clc1cccc(Nc2ncnc3sc4c(c23)CCCC4)c1 | inactive | 74% | – | –
10 | COc1cc2ncnc(NCc3cccc(Cl)c3)c2cc1OC | 56% | 95% | – | –
11 | COc1cc2ncnc(NCc3ccccc3C(F)(F)F)c2cc1OC | 43% | 90% | – | –
12 | Cc1cccc(Nc2ncnc3c2cnn3C)c1 | inactive | 73% | – | –
